For one assay, the target named is T1, Adenosine receptor A2b (Bos taurus, UniProt Q1LZD0).
T1 sequence (Q1LZD0 whole entry): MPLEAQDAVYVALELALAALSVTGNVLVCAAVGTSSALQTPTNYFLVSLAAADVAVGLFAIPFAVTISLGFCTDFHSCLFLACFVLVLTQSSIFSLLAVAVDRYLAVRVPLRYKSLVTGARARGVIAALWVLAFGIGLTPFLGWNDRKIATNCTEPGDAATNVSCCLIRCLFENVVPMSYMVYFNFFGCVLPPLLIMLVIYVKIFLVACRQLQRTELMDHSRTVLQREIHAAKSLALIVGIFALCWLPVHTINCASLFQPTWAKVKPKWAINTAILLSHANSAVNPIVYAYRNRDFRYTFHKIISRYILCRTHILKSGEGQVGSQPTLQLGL

For the next assay, the target named is Adenosine receptor A2a (Cavia porcellus, UniProt P46616).
Adenosine receptor A2a, sequence (P46616 whole entry): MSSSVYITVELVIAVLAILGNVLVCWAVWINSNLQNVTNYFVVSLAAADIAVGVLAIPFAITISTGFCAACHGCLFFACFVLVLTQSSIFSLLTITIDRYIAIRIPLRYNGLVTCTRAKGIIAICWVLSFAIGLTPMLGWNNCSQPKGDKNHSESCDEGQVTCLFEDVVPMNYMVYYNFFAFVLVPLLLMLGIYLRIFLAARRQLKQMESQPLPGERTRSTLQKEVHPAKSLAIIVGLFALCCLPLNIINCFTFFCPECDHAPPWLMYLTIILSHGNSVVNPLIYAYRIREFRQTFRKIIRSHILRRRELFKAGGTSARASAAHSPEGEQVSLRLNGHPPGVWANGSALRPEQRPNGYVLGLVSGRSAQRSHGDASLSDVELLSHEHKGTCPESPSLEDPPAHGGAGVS
Assay [1] concerns the target T2, Adenosine receptor A1 (Bos taurus, UniProt P28190).
T2 sequence (P28190 whole entry): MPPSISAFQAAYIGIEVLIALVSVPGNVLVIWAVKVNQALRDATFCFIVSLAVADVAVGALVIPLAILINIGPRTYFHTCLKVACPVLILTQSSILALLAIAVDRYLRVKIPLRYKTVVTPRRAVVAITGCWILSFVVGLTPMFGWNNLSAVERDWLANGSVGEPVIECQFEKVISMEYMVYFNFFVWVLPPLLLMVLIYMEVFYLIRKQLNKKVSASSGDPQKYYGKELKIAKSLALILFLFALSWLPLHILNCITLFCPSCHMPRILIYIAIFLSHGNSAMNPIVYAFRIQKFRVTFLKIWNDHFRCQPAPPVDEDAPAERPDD

The target of assay [2] is T3, Adenosine receptor A1 (Cavia porcellus, UniProt P47745).
T3 sequence (P47745 whole entry): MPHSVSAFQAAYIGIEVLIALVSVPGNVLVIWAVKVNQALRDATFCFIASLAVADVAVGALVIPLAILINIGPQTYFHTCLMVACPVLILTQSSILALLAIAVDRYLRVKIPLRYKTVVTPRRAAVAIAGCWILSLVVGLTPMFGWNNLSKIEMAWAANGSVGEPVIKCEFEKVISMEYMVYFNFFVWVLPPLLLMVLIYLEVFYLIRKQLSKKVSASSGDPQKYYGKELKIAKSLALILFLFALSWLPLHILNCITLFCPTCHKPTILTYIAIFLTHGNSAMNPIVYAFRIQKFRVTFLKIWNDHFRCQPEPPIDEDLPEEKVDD

Each structure is given as a SMILES string.

What is called Ki is a measure of affinity in units of concentration, obtained from inhibition or displacement. A higher Ki goes with a looser hold on the target.

Turning to `Nc1nc(Cl)nc2c1ncn2[C@@H]1O[C@H](CO)[C@@H](O)[C@H]1O` [2-CI Adenosine], the values for the Ki on Adenosine receptor A2b and at Adenosine receptor A2a were 6.92 µM and greater than 10 µM, respectively.

For `CC(Cc1ccccc1)Nc1ncnc2c1ncn2C1OC(CO)C(O)C1O` (centres undefined) [R-N6-(2-phenylisopropyl) adenosine], the Ki came out at 18.2 nM on Adenosine receptor A1 [1] and 1950 nM on Adenosine receptor A1 [2].

The values above are taken from BindingDB's records for PubMed 8386236 (Whitby Research, 1993).
